The values that follow come from ChEMBL document CHEMBL1201862, “PubChem BioAssay data set” (2004).

Calls of active or inactive are those of the source. Rule as the data show it, for most assays here: actives have a measured EC50 and inactives only a lower limit.

In experiment [1] the target is T1, Protein skinhead-1 (Caenorhabditis elegans, UniProt P34707).
T1 sequence (P34707 whole entry): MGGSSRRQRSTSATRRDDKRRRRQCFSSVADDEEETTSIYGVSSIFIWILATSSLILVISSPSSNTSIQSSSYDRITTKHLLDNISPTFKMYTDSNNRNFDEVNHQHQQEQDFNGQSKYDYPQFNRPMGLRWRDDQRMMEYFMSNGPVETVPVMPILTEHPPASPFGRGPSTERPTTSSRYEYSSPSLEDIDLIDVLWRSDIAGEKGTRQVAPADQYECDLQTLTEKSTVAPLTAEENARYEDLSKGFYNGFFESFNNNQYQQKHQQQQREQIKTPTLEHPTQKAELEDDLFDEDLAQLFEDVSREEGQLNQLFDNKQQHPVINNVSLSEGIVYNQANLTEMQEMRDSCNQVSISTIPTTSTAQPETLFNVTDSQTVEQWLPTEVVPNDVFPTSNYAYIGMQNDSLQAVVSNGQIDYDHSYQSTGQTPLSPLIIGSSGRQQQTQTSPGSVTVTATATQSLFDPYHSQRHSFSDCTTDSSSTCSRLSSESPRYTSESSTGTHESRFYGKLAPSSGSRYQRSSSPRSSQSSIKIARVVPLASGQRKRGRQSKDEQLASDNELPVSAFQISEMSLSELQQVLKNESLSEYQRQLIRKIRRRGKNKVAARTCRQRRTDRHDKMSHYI
In kind it is functional.

The target in experiment [2] is T2, Corticotropin-releasing factor receptor 2/Corticotropin-releasing factor-binding protein (Homo sapiens, UniProt P24387+Q13324).
T2 sequence (Q13324 whole entry): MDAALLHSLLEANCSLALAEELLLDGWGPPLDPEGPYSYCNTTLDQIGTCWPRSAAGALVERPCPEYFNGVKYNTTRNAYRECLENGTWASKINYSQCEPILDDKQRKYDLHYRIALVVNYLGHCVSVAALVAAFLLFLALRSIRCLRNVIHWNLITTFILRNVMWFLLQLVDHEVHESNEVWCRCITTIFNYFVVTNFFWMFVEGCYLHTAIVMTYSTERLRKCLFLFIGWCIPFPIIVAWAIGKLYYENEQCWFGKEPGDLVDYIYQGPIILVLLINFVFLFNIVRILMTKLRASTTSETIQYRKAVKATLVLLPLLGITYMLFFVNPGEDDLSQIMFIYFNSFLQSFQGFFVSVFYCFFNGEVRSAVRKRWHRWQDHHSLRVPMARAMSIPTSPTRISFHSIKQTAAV
T2 sequence (P24387 whole entry): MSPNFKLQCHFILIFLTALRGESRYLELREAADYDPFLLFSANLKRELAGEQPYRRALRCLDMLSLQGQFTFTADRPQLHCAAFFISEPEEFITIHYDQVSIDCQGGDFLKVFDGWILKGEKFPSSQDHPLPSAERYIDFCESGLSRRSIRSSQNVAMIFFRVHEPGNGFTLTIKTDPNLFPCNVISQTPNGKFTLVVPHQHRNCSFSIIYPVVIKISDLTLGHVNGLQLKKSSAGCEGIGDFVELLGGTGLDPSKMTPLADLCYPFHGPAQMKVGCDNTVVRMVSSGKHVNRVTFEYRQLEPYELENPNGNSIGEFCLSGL
As to the kind of experiment: activators of CRF receptor 2 with binding protein – uHTS hits, confirmation (AID 602473). In kind it is functional. Conditions: read-out: EC50_Mean.

The target of experiment [3] is T2, Corticotropin-releasing factor receptor 2/Corticotropin-releasing factor-binding protein. The experiment in a line: Dose Response confirmation of uHTS hits for small molecule antagonists of the CRF-binding protein and CRF-R2 receptor complex. In kind it is functional. As to conditions: read-out: IC50_Mean.
A short description of experiment [4]: Luminescence Cell-Based Dose Response HTS to Identify Inhibitors of 5'UTR Stem-Loop Driven Prion Protein mRNA Translation in H4 Neuroglioblastoma Cells. [Related pubchem assays: 1827 (Project Summary), 1813 (Primary HTS)]. In kind it is functional.
A short description of experiment [5]: luciferase reporter signal suppression in cells – H4 neuroglioma cells, luminescence, dose response (AID 1990). In kind it is functional, cell-based.
Experiment [6] in a line: alpha-synuclein stem-loop luciferase translation blockers – H4 neuroglioma cells, luminescence, confirmation (AID 1988). In kind it is functional, cell-based.
Experiment [7] addresses T3, Replicative DNA helicase DnaB (Mycobacterium tuberculosis, UniProt P9WMR3).
T3 sequence (P9WMR3 whole entry): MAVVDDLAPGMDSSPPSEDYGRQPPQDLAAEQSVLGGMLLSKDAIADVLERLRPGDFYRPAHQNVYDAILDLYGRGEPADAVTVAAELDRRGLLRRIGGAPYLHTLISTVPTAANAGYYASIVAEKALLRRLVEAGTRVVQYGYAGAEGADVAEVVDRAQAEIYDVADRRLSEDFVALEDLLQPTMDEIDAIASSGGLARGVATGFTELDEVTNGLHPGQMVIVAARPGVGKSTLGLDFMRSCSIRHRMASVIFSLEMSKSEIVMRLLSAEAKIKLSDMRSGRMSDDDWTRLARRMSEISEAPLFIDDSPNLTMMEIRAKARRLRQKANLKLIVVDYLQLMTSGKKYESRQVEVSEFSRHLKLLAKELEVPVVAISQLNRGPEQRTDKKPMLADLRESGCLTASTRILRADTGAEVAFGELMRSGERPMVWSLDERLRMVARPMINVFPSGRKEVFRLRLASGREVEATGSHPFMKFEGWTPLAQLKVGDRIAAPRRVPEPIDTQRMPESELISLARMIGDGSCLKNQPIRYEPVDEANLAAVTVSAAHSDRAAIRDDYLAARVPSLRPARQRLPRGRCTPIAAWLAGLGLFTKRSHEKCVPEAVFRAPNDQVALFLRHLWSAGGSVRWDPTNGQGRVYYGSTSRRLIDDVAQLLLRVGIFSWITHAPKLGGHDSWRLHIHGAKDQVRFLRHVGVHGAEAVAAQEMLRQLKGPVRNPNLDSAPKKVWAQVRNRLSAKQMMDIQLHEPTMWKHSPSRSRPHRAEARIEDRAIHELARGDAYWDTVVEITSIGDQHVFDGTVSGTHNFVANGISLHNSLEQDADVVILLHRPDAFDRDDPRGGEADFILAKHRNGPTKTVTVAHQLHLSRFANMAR
As to the kind of experiment: DnaB intein splicing inhibitors, dose response, biochemical, cell-free fluorescence (AID 449749). It counts as functional.

Experiment [8] deals with T4, Protein RecA (Mycobacterium tuberculosis, UniProt P9WHJ3).
T4 sequence (P9WHJ3 whole entry): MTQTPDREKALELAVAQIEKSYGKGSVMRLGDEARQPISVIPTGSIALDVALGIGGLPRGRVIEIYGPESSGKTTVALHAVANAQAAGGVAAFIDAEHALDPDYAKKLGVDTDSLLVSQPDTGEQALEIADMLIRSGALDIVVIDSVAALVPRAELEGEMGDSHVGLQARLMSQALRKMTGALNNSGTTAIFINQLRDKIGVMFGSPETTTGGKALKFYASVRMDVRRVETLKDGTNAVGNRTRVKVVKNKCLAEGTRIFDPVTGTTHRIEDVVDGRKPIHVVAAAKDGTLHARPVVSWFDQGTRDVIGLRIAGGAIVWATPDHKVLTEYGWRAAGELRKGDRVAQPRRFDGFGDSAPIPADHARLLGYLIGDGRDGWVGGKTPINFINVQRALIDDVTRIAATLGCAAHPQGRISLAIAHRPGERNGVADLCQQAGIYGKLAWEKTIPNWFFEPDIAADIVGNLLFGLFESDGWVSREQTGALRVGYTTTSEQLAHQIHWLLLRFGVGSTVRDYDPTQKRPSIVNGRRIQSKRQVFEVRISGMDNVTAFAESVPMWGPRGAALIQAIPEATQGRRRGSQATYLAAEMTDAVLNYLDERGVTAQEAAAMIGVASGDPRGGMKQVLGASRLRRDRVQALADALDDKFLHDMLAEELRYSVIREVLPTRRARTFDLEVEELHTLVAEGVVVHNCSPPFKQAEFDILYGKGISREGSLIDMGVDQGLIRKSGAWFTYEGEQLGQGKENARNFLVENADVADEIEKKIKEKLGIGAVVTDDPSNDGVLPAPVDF
The experiment in a line: Fluorescence Cell-Free Homogeneous Dose Retest to Identify Inhibitors of RecA-Intein Splicing Activity. [Related pubchem assays (depositor defined):AID2097, AID2223, AID489010, AID492950]. In kind it is functional.

Consider `C[C@](N)(CCP(=O)(O)O)C(=O)O`, for which the IC50 in experiment [1] is > 100 µM (inactive).

Take `Cc1cccc(NC2=NC(=O)/C(=C/c3cccn3C)S2)c1C`: the IC50 in experiment [1] is > 100 µM (inactive).

As to `COC(=O)c1cc(C#N)c(N(C)Cc2ccccc2)nc1C`, the EC50 in experiment [2] is > 53 µM (inactive). For the same molecule, the IC50 in experiment [3] was 5.03 µM (active).

For `O=C1C(=C2SCCCS2)CC/C1=C\c1ccc(F)cc1`, the results for the EC50 in experiment [4], in experiment [5] and in experiment [6] were 4.36 µM (active), 0.238 µM (active) and 0.116 µM (active), respectively.

In the case of `CC(C)OC(=O)CSc1nnnn1-c1ccc2c(c1)OCCO2`, the IC50 in experiment [1] is > 100 µM (inactive).

As to `COC(=O)C(F)(F)Sc1c(C)[nH]c2ccccc12`, the EC50 in experiment [2] was > 53 µM (inactive). In experiment [3], the IC50 was 15.4 µM (active).

For the molecule `O=C(Cc1c(O)c2ccccc2[nH]c1=O)OC1CCCCC1`, in experiment [2], the EC50 was > 53 µM (inactive). Moreover, the IC50 in experiment [3] is > 47.1 µM (inactive).

As for `CC1CCc2c(C(=O)Nc3ccccn3)csc2C1` (stereo not given), the EC50 in experiment [2] was > 53 µM (inactive). For the same molecule, the IC50 in experiment [3] is > 47.1 µM (inactive).

Regarding `CN1CCN(CC(=O)Nc2cc(N(C)C)nc3ccccc23)CC1`, in experiment [2], the EC50 was > 53 µM (inactive). For the same molecule, the IC50 in experiment [3] is > 47.1 µM (inactive).

In the case of `O=C(NCc1ccc(F)cc1)C(=O)NCC1OCCN1C(=O)c1ccc(Cl)cc1` (stereo not given), in experiment [2], the EC50 is > 53 µM (inactive). For the same molecule, the IC50 in experiment [3] was > 47.1 µM (inactive).

Consider `O=C(CSc1nc2ccccc2c(=O)n1Cc1ccco1)N1CCCC1`, for which the figures for the EC50 in experiment [4], in experiment [5] and in experiment [6] were > 120 µM (not active), 20.3 µM (active) and > 120 µM (not active), respectively.

In the case of `C=CCN(c1ccccc1)S(=O)(=O)c1cccc(C(=O)OCC(=O)NCCOC)c1`, the EC50 in experiment [2] was > 53 µM (inactive). Further, in experiment [3], the IC50 is > 47.1 µM (inactive).

Consider `O=C(Nc1ccc(S(=O)(=O)NC2CCCCC2)cc1)c1ccco1`, for which the EC50 is > 120 µM (not active) in experiment [4], 26.7 µM (active) in experiment [5] and > 120 µM (not active) in experiment [6].

For `COc1cc2c(cc1OC)C(C)N(C(=O)c1cc(C)on1)CC2` (stereo not given), the EC50 in experiment [4] was 3.88 µM (active); in experiment [5], 4.12 µM (active); in experiment [6], 0.415 µM (active).

Take `O=C(Nc1ccc(OC(=O)N2CCCC2)cc1)N1CCOCC1`: the IC50 in experiment [1] is > 100 µM (inactive).

`Cc1nc2nc(CSc3nc4ccccc4s3)cc(O)n2n1`: the IC50 in experiment [1] is > 100 µM (inactive).

`COc1ccccc1NC(=O)CN1C(=O)CCS(=O)(=O)c2ccccc21`: the EC50 in experiment [2] is > 53 µM (inactive). In addition, the IC50 in experiment [3] is > 47.1 µM (inactive).

As for `CCn1c(CCC(=O)Nc2nc3c(s2)CCCC3)nc2cc(S(=O)(=O)N(C)C)ccc21`, in experiment [1], the IC50 was > 100 µM (inactive).

As for `Cc1c(OCC(=O)Nc2cccnc2)ccc2c3c(c(=O)oc12)CCC3`, the figures for the EC50 in experiment [4], in experiment [8] and in experiment [6] were > 120 µM (not active), 2.26 µM (active) and > 120 µM (not active), respectively. In experiment [7], the AC50 (commonly the concentration giving half of the maximal activity seen) is 2.65 µM (active).

In the case of `CC(C)NC(=O)COC(=O)c1ccc(S(=O)(=O)N2CCCC2)cc1`, the EC50 in experiment [4], in experiment [5] and in experiment [6] was > 120 µM (not active) throughout.

As for `CCCOc1cc(C)c(S(=O)(=O)NCc2cccs2)cc1C`, the IC50 in experiment [1] was > 100 µM (inactive).

Regarding `Cc1ccc(-c2ccc(SCC(=O)NCC3CCCO3)nn2)cc1` (stereo not given), in experiment [2], the EC50 is > 53 µM (inactive). Also, the IC50 in experiment [3] was > 47.1 µM (inactive).

In the case of `O=Nc1nc2ncccn2c1-c1ccccc1`, in experiment [2], the EC50 is > 53 µM (inactive). For the same molecule, in experiment [3], the IC50 was > 47.1 µM (inactive).

As for `Clc1ccc(N2CCN(c3ccnc(Cl)n3)CC2)cc1`, in experiment [1], the IC50 was 26.3 µM (active).

Regarding `COc1ccc(Cc2c(-c3ccco3)nc3c(C)cc(Br)cn23)c(C)c1`, the IC50 in experiment [1] is > 100 µM (inactive).

For `Cc1ccc(S(=O)(=O)NC2=NCN(C3CCN(Cc4ccccc4)CC3)CN2)cc1`, the EC50 in experiment [2] is > 53 µM (inactive). Moreover, the IC50 in experiment [3] is > 47.1 µM (inactive).
